Measured values reported in BindingDB's records for doi:10.1021/jm00067a022 (Syntex Discovery Research, 1993).

Test: Inhibition of lanosterol 14-alpha-demethylase in hamster hepatic microsomes

CC(=O)N1CCN(c2ccc(OC[C@@H]3CO[C@@](Cn4ccnc4)(c4ccc(Cl)cc4Cl)O3)cc2)CC1 [Nizoral]
Ki: 25 nM
